Source: patent US20080009418A1, “Selective Inhibitors” (Alchemia LTD., priority 2004, published 2008)

Key:
Conditions in all cases: compound at 10 μM
[1] = biological target: T1, Human neurokinin (NK1) (Homo sapiens, UniProt P25103); assay: Radioligand binding, human neurokinin NK1 membranes, filtration, [125I]-Substance P
T1 construct: purchased Perkin Elmer Biosignal
Procedure, shortened: (§1)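 Membranes from cloned human receptors were incubated with compound and radioligand for 1 hour at room temperature. Bound ligand was collected on 0.3% PEI-soaked filters, washed with cold 50 mM Tris-HCl pH 7.4, and counted by scintillation. Percent inhibition was computed against DMSO totals and reference-ligand nonspecific wells.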

[2] = biological target: T2, Human μ-opioid (MOP) (Homo sapiens, UniProt P35372); assay: Radioligand binding, human μ-opioid (MOP) membranes, FlashPlate, [3H]-Naloxone
T2 construct: purchased Perkin Elmer Biosignal
Procedure, shortened: (§2)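 Cloned human receptor membranes were coated onto FlashPlate wells and incubated with radioligand and compound (added from a 0.5 mM DMSO daughter plate) for 1 hour at room temperature in the dark. Scintillation counting gave percent inhibition, with DMSO defining total and reference ligand defining non-specific binding.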

[3] = biological target: T3, Human neuropeptide Y (NPY-Y1) (Homo sapiens, UniProt P25929); assay: Radioligand binding, human neuropeptide Y NPY-Y1 membranes, FlashPlate, [125I]-PYY
T3 construct: purchased Perkin Elmer Biosignal
T3 sequence (P25929 1-384): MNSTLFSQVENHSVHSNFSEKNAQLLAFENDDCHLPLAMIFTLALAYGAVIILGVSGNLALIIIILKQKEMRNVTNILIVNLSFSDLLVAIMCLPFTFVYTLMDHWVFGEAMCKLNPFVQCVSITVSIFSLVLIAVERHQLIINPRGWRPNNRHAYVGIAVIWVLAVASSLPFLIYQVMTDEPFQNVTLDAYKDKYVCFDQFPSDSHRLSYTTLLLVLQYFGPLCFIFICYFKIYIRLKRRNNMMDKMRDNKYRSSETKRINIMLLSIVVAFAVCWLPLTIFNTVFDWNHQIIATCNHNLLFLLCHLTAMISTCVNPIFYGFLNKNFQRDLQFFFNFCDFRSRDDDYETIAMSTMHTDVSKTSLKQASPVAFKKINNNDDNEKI
Procedure, shortened: as §2

[4] = biological target: T4, Human Melanocortin (MC3) (Homo sapiens, UniProt P41968); assay: Radioligand binding, human melanocortin MC3 membranes, FlashPlate, [125I]-NDP-αMSH
T4 construct: purchased Perkin Elmer Biosignal
Procedure, shortened: as §2

[5] = biological target: T5, Human Melanocortin (MC4) (Homo sapiens, UniProt P32245); assay: Radioligand binding, human melanocortin MC4 membranes, FlashPlate, [125I]-NDP-αMSH
T5 construct: purchased Perkin Elmer Biosignal
Procedure, shortened: as §2

[6] = biological target: T6, Human melanin-concentrating hormone (MCH1) (Homo sapiens, UniProt Q99705); assay: Radioligand binding, human melanin-concentrating hormone MCH1 membranes, FlashPlate, [125I]-S36057
T6 construct: purchased Perkin Elmer Biosignal
Procedure, shortened: as §2

[7] = biological target: T7, Mouse urotensin (mUR2) (Mus musculus, UniProt Q8VIH9); assay: Radioligand binding, mouse urotensin mUR2 membranes, FlashPlate, [125I]-Urotensin II
T7 construct: purchased Perkin Elmer Biosignal
T7 sequence (Q8VIH9 1-385): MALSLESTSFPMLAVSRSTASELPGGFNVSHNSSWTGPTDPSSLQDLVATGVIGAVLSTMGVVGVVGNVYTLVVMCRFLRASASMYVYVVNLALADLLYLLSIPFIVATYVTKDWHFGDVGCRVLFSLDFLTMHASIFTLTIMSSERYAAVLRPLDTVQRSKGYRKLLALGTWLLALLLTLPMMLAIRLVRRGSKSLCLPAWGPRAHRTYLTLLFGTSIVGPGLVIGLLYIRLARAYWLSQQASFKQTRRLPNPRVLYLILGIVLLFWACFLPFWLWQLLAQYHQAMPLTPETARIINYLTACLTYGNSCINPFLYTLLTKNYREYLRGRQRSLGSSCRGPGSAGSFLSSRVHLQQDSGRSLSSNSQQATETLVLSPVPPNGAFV
Procedure, shortened: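 Cloned mouse urotensin (mUR2) receptor membranes from Perkin Elmer Biosignal were immobilized in FlashPlate microplates using a proprietary coating. Each well got 19.5 μl buffer, then 0.5 μl of DMSO, reference ligand, or compound. Adding 5 μl of [125I]-Urotensin II, diluted to 5× final concentration in binding buffer, started binding. Plates were sealed with TopSeal-A and incubated 1 hour at room temperature in the dark. Wells were counted for 30 seconds each on a TopCount after a 60-second delay, and percentage inhibition was calculated.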

[8] = biological target: T8, Human opioid (ORL1) (Homo sapiens, UniProt P41146); assay: Radioligand binding, human opioid ORL1 membranes, FlashPlate, [125I]-Nociceptin
T8 construct: purchased Perkin Elmer Biosignal
Procedure, shortened: as §2

[9] = biological target: T9, Human melanocortin (MC5) (Homo sapiens, UniProt P33032); assay: Radioligand binding, human melanocortin MC5 membranes, FlashPlate, [125I]-NDP-αMSH
T9 construct: purchased Perkin Elmer Biosignal
Procedure, shortened: as §2

[10] = biological target: T10, Human δ-opioid (DOP) (Homo sapiens, UniProt P41143); assay: Radioligand binding, human δ-opioid (DOP) membranes, FlashPlate, [3H]-Bremazocine
T10 construct: purchased Perkin Elmer Biosignal
Procedure, shortened: as §2

[11] = biological target: T11, Human κ-Opioid (KOP) (Homo sapiens, UniProt P41145); assay: Radioligand binding, human κ-opioid (KOP) membranes, filtration, [3H]-Diprenorphine
T11 construct: purchased Perkin Elmer Biosignal
Procedure, shortened: as §1

T1 sequence (P25103 whole entry): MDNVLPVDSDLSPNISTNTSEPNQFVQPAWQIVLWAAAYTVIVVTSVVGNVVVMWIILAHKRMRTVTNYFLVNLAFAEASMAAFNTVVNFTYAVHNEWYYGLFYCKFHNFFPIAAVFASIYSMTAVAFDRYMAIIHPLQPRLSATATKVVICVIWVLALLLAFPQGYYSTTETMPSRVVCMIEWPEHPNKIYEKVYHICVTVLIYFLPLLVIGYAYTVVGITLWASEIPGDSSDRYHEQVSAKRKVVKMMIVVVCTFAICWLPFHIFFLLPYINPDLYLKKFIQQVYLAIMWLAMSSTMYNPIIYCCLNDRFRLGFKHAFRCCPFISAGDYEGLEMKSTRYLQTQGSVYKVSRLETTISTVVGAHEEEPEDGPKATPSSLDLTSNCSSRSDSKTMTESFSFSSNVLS
T6 sequence (Q99705 whole entry): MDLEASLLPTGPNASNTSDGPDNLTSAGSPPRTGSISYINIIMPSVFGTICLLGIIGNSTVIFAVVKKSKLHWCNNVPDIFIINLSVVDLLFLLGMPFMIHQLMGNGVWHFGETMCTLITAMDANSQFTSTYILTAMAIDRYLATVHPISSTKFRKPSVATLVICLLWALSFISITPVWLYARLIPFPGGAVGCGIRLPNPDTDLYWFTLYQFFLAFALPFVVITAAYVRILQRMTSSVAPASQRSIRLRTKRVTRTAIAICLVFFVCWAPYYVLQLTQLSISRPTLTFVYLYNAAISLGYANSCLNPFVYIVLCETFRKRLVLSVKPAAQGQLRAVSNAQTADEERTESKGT
T9 sequence (P33032 whole entry): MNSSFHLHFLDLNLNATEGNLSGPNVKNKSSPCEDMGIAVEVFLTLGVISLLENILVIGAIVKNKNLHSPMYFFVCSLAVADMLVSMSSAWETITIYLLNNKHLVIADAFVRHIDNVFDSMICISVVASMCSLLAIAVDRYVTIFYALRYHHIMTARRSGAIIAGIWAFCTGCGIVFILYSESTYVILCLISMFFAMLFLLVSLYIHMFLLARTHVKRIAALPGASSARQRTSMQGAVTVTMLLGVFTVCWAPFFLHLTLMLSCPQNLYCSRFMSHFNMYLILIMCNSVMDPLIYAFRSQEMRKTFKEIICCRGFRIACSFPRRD
T4 sequence (P41968 whole entry): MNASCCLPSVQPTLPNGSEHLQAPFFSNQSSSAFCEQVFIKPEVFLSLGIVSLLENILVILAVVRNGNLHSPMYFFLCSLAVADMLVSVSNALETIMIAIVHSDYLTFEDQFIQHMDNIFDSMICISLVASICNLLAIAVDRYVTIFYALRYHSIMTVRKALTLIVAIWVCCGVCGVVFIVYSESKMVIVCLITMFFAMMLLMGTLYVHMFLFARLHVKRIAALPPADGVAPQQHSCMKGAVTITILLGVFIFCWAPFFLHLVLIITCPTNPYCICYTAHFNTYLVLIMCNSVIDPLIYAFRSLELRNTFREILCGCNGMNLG
T5 sequence (P32245 whole entry): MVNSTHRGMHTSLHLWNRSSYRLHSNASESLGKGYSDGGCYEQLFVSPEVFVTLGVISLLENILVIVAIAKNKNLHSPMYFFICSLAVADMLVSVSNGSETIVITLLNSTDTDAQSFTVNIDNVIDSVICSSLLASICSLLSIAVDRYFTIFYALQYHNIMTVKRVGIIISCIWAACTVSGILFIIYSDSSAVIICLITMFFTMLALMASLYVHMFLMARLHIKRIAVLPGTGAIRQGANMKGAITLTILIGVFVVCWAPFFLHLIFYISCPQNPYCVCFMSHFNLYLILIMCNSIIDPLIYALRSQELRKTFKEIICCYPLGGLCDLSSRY
T8 sequence (P41146 whole entry): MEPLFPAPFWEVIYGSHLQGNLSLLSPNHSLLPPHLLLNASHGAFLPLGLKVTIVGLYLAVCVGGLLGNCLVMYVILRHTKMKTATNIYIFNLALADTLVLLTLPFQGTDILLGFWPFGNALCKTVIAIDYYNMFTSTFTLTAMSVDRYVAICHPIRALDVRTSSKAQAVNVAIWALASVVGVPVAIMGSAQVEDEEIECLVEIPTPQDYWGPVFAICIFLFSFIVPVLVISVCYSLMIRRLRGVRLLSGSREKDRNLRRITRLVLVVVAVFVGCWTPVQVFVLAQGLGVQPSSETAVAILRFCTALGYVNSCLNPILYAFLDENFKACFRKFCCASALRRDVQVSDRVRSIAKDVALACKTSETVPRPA
T2 sequence (P35372 whole entry): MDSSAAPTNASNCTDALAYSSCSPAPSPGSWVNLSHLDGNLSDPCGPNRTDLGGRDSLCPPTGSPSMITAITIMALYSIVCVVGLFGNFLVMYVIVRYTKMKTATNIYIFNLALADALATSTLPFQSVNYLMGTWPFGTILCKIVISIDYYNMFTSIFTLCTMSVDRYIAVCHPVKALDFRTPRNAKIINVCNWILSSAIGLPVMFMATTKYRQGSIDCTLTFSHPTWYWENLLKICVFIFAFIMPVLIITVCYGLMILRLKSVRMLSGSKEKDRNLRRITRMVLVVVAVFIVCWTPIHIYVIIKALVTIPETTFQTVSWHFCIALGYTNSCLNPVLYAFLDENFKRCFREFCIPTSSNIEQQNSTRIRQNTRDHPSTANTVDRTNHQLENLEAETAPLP
T11 sequence (P41145 whole entry): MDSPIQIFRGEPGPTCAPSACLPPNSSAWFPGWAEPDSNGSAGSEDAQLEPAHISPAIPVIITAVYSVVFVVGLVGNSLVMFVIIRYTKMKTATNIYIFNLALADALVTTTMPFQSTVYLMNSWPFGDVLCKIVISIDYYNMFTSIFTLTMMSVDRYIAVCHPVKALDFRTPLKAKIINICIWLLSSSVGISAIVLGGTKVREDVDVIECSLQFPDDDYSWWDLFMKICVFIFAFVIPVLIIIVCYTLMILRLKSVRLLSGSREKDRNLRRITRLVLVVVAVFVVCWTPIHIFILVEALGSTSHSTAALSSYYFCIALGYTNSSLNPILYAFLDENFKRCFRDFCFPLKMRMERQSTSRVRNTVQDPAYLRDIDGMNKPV
T10 sequence (P41143 whole entry): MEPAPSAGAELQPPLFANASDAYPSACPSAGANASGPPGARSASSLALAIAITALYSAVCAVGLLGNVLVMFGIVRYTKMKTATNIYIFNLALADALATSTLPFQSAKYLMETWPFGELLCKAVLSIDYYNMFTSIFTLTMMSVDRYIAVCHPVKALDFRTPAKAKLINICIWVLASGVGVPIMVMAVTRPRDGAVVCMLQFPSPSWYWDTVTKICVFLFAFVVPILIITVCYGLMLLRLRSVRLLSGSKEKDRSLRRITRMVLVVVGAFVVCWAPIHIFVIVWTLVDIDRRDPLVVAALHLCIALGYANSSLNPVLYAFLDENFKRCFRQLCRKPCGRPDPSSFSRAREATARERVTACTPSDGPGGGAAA

## CO[C@H]1[C@H](O)[C@@H](COCc2ccccc2)OC(OCCc2ccccc2)[C@@H]1NC(=O)CCCNC(=N)N (stereo partly drawn) [compound 118]
[1]; [125I]-Substance P
  A8 radioligand binding, percentage inhibition: + (“+” indicates greater than 50% inhibition at 10 μM)
[2]; [3H]-Naloxone
  A7 radioligand binding, percentage inhibition: − (“−” indicates less than 50% inhibition at 10 μM)
[3]; [125I]-PYY
  A9 radioligand binding, percentage inhibition: − (“−” indicates less than 50% inhibition at 10 μM)
[4]; [125I]-NDP-αMSH
  A3 radioligand binding, percentage inhibition: − (“−” indicates less than 50% inhibition at 10 μM)
[5]; [125I]-NDP-αMSH
  A4 radioligand binding, percentage inhibition: − (“−” indicates less than 50% inhibition at 10 μM)
[6]; [125I]-S36057
  A6 radioligand binding, percentage inhibition: − (“−” indicates less than 50% inhibition at 10 μM)
[7]; [125I]-Urotensin II
  A11 radioligand binding, percentage inhibition: − (“−” indicates less than 50% inhibition at 10 μM)
[8]; [125I]-Nociceptin
  A10 radioligand binding, percentage inhibition: − (“−” indicates less than 50% inhibition at 10 μM)
[9]; [125I]-NDP-αMSH
  A5 radioligand binding, percentage inhibition: − (“−” indicates less than 50% inhibition at 10 μM)
[10]; [3H]-Bremazocine
  A1 radioligand binding, percentage inhibition: − (“−” indicates less than 50% inhibition at 10 μM)
[11]; [3H]-Diprenorphine
  A2 radioligand binding, percentage inhibition: − (“−” indicates less than 50% inhibition at 10 μM)

## COC[C@H]1OC(OCCc2ccccc2)[C@H](NC(=O)CCNC(=N)N)[C@@H](OCc2ccccc2)[C@@H]1O (stereo partly drawn) [compound 46]
[1]; human neurokinin NK1 membranes
  A8 radioligand binding inhibition: + (“+” indicates greater than 50% inhibition at 10 μM)
[2]; human μ-opioid (MOP) membranes
  A7 radioligand binding inhibition: − (“−” indicates less than 50% inhibition at 10 μM)
[3]; human NPY-Y1 membranes
  A9 radioligand binding inhibition: − (“−” indicates less than 50% inhibition at 10 μM)
[4]; human melanocortin MC3 membranes
  A3 radioligand binding inhibition: − (“−” indicates less than 50% inhibition at 10 μM)
[5]; human melanocortin MC4 membranes
  A4 radioligand binding inhibition: − (“−” indicates less than 50% inhibition at 10 μM)
[6]; human MCH1 membranes
  A6 radioligand binding inhibition: − (“−” indicates less than 50% inhibition at 10 μM)
[7]; mouse urotensin mUR2 membranes
  A11 radioligand binding inhibition: − (“−” indicates less than 50% inhibition at 10 μM)
[8]; human ORL1 membranes
  A10 radioligand binding inhibition: − (“−” indicates less than 50% inhibition at 10 μM)
[9]; human melanocortin MC5 membranes
  A5 radioligand binding inhibition: − (“−” indicates less than 50% inhibition at 10 μM)
[10]; human δ-opioid (DOP) membranes
  A1 radioligand binding inhibition: − (“−” indicates less than 50% inhibition at 10 μM)
[11]; human κ-opioid (KOP) membranes
  A2 radioligand binding inhibition: − (“−” indicates less than 50% inhibition at 10 μM)

## N=C(N)NCCC(=O)NC1C(OCc2ccc(-c3ccccc3)cc2)OC(COCc2ccc(Cl)cc2)C(O)C1OCc1ccc(Cl)cc1 (stereo not drawn) [compound 410]
[1]; [125I]-Substance P, human NK1 membranes
  A8: inhibition of radioligand binding: + (“+” indicates greater than 50% inhibition at 10 μM)
[2]; [3H]-Naloxone, human MOP membranes
  A7: inhibition of radioligand binding: − (“−” indicates less than 50% inhibition at 10 μM)
[3]; [125I]-PYY, human NPY-Y1 membranes
  A9: inhibition of radioligand binding: − (“−” indicates less than 50% inhibition at 10 μM)
[4]; [125I]-NDP-αMSH, human MC3 membranes
  A3: inhibition of radioligand binding: + (“+” indicates greater than 50% inhibition at 10 μM)
[5]; [125I]-NDP-αMSH, human MC4 membranes
  A4: inhibition of radioligand binding: + (“+” indicates greater than 50% inhibition at 10 μM)
[6]; [125I]-S36057, human MCH1 membranes
  A6: inhibition of radioligand binding: + (“+” indicates greater than 50% inhibition at 10 μM)
[7]; [125I]-Urotensin II, mouse mUR2 membranes
  A11: inhibition of radioligand binding: − (“−” indicates less than 50% inhibition at 10 μM)
[8]; [125I]-Nociceptin, human ORL1 membranes
  A10: inhibition of radioligand binding: + (“+” indicates greater than 50% inhibition at 10 μM)
[9]; [125I]-NDP-αMSH, human MC5 membranes
  A5: inhibition of radioligand binding: + (“+” indicates greater than 50% inhibition at 10 μM)
[10]; [3H]-Bremazocine, human DOP membranes
  A1: inhibition of radioligand binding: − (“−” indicates less than 50% inhibition at 10 μM)
[11]; [3H]-Diprenorphine, human KOP membranes
  A2: inhibition of radioligand binding: − (“−” indicates less than 50% inhibition at 10 μM)
